Results: patent US20250367184A1, “CYP11A1 INHIBITOR FOR USE IN THE TREATMENT OF PROSTATE CANCER” (ORION CORPORATION, priority 2021, published 2025)

How the values were obtained:
[1] = system: Patients with progressive mCRPC; assay: Clinical study of compound (1A) in progressive mCRPC patients: PSA change from baseline by activating AR gene alteration status; assay type: in vivo, human; conditions: for subjects with PSA decline of ≥50% (PSA response): oral 10-150 mg daily with corticosteroids, on ADT, prior ARSi
Excerpt: Patients with progressive mCRPC were enrolled in the clinical trial to study the effect of a CYP11A1 inhibitor 2-(isoindolin-2-ylmethyl)-5-((1-(methylsulfonyl)-piperidin-4-yl)methoxy)-4H-pyran-4-one (1A). The patients were on ADT therapy and had previously received androgen receptor signalling inhibitor (ARSi) therapy and chemotherapy, or were ineligible for chemotherapy. Five different daily dose levels of compound (1A) with dexamethasone and fludrocortisone were given orally to 27 patients in the dose escalation/de-escalation part. Corticosteroid doses were allowed to be adjusted during the trial based on the subject's clinical condition. The daily doses were 10 mg (5 mg b.i.d), 30 mg (15 mg b.i.d.), 50 mg (25 mg b.i.d), 100 mg (50 mg b.i.d.), and 150 mg (75 mg b.i.d.). In a separate dosing evaluation part, once daily dosing of 25 mg of compound (1A), and two different glucocorticoid replacement therapies, hydrocortisone and prednisone, were evaluated in 14 patients. Subjects were allowed to continue the therapy until disease progression or intolerable toxicity. Anti-tumour activity was determined by measuring change in the PSA (prostate-specific antigen) value in PSA evaluable patient population (n=37, at least 4-week value available). A decrease in the PSA value indicates anti-tumour activity. PSA response in a patient was defined as at least 50% decline from the baseline PSA value.
(§1) Existence of activating AR-LBD somatic point mutations and AR gene amplification were analysed in plasma cfDNA samples obtained from the patients using the OncoBEAM® prostate cancer digital PCR assay panel (Sysmex Inostics, Inc.) and Guardant360 CDx (Guardant Health, Inc) assay panel. The assay panels were utilized to test the existence of activating AR-LBD point mutations including L702H, V716M, V716L, W742C, W742L, H875Y, F877L, T878A, T878S, D891Y, M896T and M896V.

[2] = system: Patients with progressive mCRPC; assay: Clinical study of compound (1B) in progressive mCRPC patients: PSA change from baseline by activating AR gene alteration status; assay type: in vivo, human; conditions: for subjects with PSA decline of ≥50% (PSA response): oral 10-20 mg daily with corticosteroids, on ADT, prior ARSi
Excerpt: Patients with progressive mCRPC were enrolled in the clinical trial to study the effect of a CYP11A1 inhibitor 2-5-((1-(methylsulfonyl)piperidin-4-yl)methoxy)-2-((5-(trifluoromethyl) isoindolin-2-yl)methyl)-4/-pyran-4-one (1B). The patients were on ADT therapy and had previously received androgen receptor signalling inhibitor (ARSi) therapy and chemotherapy, or were ineligible for chemotherapy. Three different daily dose levels of compound (1B) with hydrocortisone and fludro-cortisone were given orally to 13 subjects in the dose escalation part. Corticosteroid doses were allowed to be adjusted during the trial based on the subject's clinical condition. The daily doses were 10 mg (10 mg q.d), 15 mg (15 mg q.d) and 20 mg (20 mg q.d). In a separate dosing evaluation part, twice daily dosing of 5 mg and 10 mg of compound (1B), and different glucocorticoid replacement therapy, dexamethasone, and different hydrocortisone dosing regimen were evaluated in 16 patients. Subjects were allowed to continue the therapy until disease progression or intolerable toxicity. Anti-tumour activity was determined by measuring change in the PSA (prostate-specific antigen) value. A decrease in the PSA value indicates anti-tumour activity. PSA response in a patient was defined as at least 50% decline from the baseline PSA value.
as §1, with “AR-LBD” for “AR-LBD point”

Row | Compound | subjects with a PSA response (decline of ≥50%) that were activating AR gene alteration positive ([1]; 12 out of 13 PSA responders) [%] | subjects with PSA decline of ≥50% (PSA response) ([1]; subjects with activating AR gene alteration (12 out of 17)) [%] | subjects with PSA decline of ≥50% (PSA response) ([1]; subjects without an activating AR gene alteration (1 out of 20)) [%] | anti-tumour activity (PSA change) in subjects with versus without activating AR gene alteration ([1]; with alteration n=17 compared to without n=20) | subjects with a PSA response (decline of ≥50%) that were activating AR gene alteration positive ([2]; 6 out of 6 PSA responders) [%] | subjects with PSA decline of ≥50% (PSA response) ([2]; subjects with activating AR gene alteration (6 out of 17)) [%] | subjects with PSA decline of ≥50% (PSA response) ([2]; subjects without an activating AR gene alteration (0 out of 8)) [%] | anti-tumour activity (PSA change) in subjects with versus without activating AR gene alteration ([2]; with alteration n=17 compared to without n=8)
1 | CS(=O)(=O)N1CCC(COc2coc(CN3Cc4ccccc4C3)cc2=O)CC1 [1A, 2-(isoindolin-2-ylmethyl)-5-((1-(methylsulfonyl)piperidin-4-yl)methoxy)-4H-pyran-4-one] | 92.3 | 70.6 | 5.0 | substantially higher |  |  |  | 
2 | CS(=O)(=O)N1CCC(COc2coc(CN3Cc4ccc(C(F)(F)F)cc4C3)cc2=O)CC1 [1B, 5-((1-(methylsulfonyl)piperidin-4-yl)methoxy)-2-((5-(trifluoromethyl)isoindolin-2-yl)methyl)-4H-pyran-4-one] |  |  |  |  | 100 | 35.3 | 0 | substantially higher
